# Data as given in publication PMC6320941, “Synthesis and Evaluation of 3-Substituted-4-(quinoxalin-6-yl) Pyrazoles as TGF-β Type I Receptor Kinase Inhibitors” (Molecules, 2018).
# Columns and labels:
# [1] = biological target: p38α MAP kinase (Homo sapiens, UniProt Q16539); experiment: Radiometric 33PanQinase p38α MAP kinase assay (ProQinase), ATF2 substrate; format: biochemical; conditions: for remaining activity at 10 µM: compound at 10 μM, in duplicate, read-out: Residual Activity (%) p38α
# Excerpt: We selected p38α MAP kinase to survey the selectivity profile of this series of compounds because its kinase domain is among the most homologous to that of ALK5 [27].
# (§1) All kinase experiments were completed by the ProQinase (Freiburg, Germany). All protein kinases were expressed in Sf9 insect cells or in E. coli as recombinant GST-fusion proteins or His-tagged proteins, either as full-length or enzymatically active fragments. All kinases were obtained from human cDNAs and purified by either GSH-affinity chromatography or immobilized metal. The purity of the protein kinases was examined by SDS-PAGE/Coomassie staining. The identity was checked by mass spectroscopy.
# (§2) A radiometric protein kinase assay (^33PanQinase® activity assay) was used for measuring the kinase activity of the two protein kinases. All kinase assays were performed in 96-well FlashPlates^TM from PerkinElmer (Boston, MA, USA) in 50 μL reaction volumes. The reaction cocktail was pipetted in four steps in the following order: 20 μL of assay buffer (standard buffer), 5 μL of ATP solution (in H2O), 5 μL of test compound (in 10% DMSO), 20 μL enzyme/substrate mix.
# (§3) The assay for all protein kinases contained 70 mM HEPES-NaOH pH 7.5, 3 mM MgCl2, 3 mM MnCl2, 3 μM Na-orthovanadate, 1.2 mM DTT, 50 μg/mL PEG20000, ATP, [γ-^33P]-ATP, protein kinase, and substrate.
# (§4) The reaction cocktail was incubated at 30 °C for 60 min. The reaction was halted with 50 μL of 2% (v/v) H3PO4, plates were aspirated and washed two times with 200 μL 0.9% (w/v) NaCl. Incorporation of ^33Pi was established with a microplate scintillation counter (PerkinElmer, Boston, MA, USA). All assays were performed with a BeckmanCoulter/SAGIAN™ Core System.
# [2] = biological target: T1, ALK5 (Homo sapiens, UniProt P36897); experiment: Radiometric 33PanQinase ALK5 kinase assay (ProQinase), casein substrate; format: biochemical; conditions: for remaining activity at 10 µM: compound at 10 μM, in duplicate, read-out: Residual Activity (%) ALK5; for Selectivity Index: IC50 of p38α/IC50 of ALK5; for ALK5 inhibitory activity in words: at up to 5.0 μM for 18a–d, 'at up to 2.26 μM' for pyrimidin-4-yl compounds
# T1 sequence (P36897 205-495 limits assumed): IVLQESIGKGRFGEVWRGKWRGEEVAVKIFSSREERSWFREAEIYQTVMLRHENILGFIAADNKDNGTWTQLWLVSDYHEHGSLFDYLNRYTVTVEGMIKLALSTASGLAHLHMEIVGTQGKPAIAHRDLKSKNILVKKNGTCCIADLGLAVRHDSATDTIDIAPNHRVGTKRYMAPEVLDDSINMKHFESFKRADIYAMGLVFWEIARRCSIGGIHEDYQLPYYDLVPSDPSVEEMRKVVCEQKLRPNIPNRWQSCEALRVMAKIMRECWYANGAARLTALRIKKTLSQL
# Method: To investigate whether compounds 14a–d, 15a–d, 16a–d, 17a–d, 18a–d, and 19a–d would inhibit ALK5, a kinase assay for preliminary screening was performed using the purified human ALK5 kinase domain produced in Sf9 insect cells and compounds at 10 μM.
# as §1, §2, §3, §4
# Chain of p38α MAP kinase (Q16539 whole entry, the tested form may be a part): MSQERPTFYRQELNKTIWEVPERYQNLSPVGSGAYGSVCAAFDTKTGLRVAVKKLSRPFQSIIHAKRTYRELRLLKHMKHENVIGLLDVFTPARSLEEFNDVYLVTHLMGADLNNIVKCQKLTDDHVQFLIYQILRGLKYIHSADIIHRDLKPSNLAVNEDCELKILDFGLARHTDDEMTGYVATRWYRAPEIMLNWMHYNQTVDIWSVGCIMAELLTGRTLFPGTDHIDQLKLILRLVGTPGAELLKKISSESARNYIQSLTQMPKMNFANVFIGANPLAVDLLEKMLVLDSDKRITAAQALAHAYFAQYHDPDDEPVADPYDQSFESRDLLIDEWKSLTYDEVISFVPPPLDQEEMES
IC50 [1],remaining activity at 10 µM [1],remaining activity at 10 µM [2],melting point,IC50 [2],Selectivity Index [2],fold more selective than compound 3 (LY-2157299) against p38α MAP kinase [2],inhibition at 10 µM ([2]; at 10 µM),ALK5 inhibitory activity in words [2],SMILES
–,68%,46%,–,–,–,–,–,–,"Cc1csc(-c2c(-c3ccc4nccnc4c3)cnn2CC(=O)Nc2ccccc2)n1 [Compound 17a, 2-(5-(4-Methylthiazol-2-yl)-4-(quinoxalin-6-yl)-1H-pyrazol-1-yl)-N-phenylacetamide]"
–,54%,73%,–,–,–,–,–,–,"Cc1csc(-c2c(-c3ccc4nccnc4c3)cnn2CC(=O)Nc2ccccc2F)n1 [Compound 17b, N-(2-Fluorophenyl)-2-(5-(4-methylthiazol-2-yl)-4-(quinoxalin-6-yl)-1H-pyrazol-1-yl)acetamide]"
–,66%,69%,–,–,–,–,–,–,"Cc1csc(-c2c(-c3ccc4nccnc4c3)cnn2CC(=O)Nc2cccc(F)c2)n1 [Compound 17c, N-(3-Fluorophenyl)-2-(5-(4-methylthiazol-2-yl)-4-(quinoxalin-6-yl)-1H-pyrazol-1-yl)acetamide]"
–,97%,58%,–,–,–,–,–,–,"Cc1csc(-c2c(-c3ccc4nccnc4c3)cnn2CC(=O)Nc2cccc(C#N)c2)n1 [Compound 17d, N-(3-Cyanophenyl)-2-(5-(4-methylthiazol-2-yl)-4-(quinoxalin-6-yl)-1H-pyrazol-1-yl)acetamide]"
> 10 µM,102%,5%,–,0.57 µM,>17,–,–,–,"Cc1csc(-c2nn(CC(=S)Nc3ccccc3)cc2-c2ccc3nccnc3c2)n1 [Compound 19a, 2-(3-(4-Methylthiazol-2-yl)-4-(quinoxalin-6-yl)-1H-pyrazol-1-yl)-N-phenylethanethioamide]"
> 10 µM,92%,2%,–,0.28 µM,>35,9.0 fold,98%,–,"Cc1csc(-c2nn(CC(=S)Nc3ccccc3F)cc2-c2ccc3nccnc3c2)n1 [Compound 19b, N-(2-Fluorophenyl)-2-(3-(4-methylthiazol-2-yl)-4-(quinoxalin-6-yl)-1H-pyrazol-1-yl)ethanethioamide]"
> 10 µM,109%,2%,–,0.33 µM,>30,–,–,–,"Cc1csc(-c2nn(CC(=S)Nc3cccc(F)c3)cc2-c2ccc3nccnc3c2)n1 [Compound 19c, N-(3-Fluorophenyl)-2-(3-(4-methylthiazol-2-yl)-4-(quinoxalin-6-yl)-1H-pyrazol-1-yl)ethanethioamide]"
> 10 µM,105%,13%,–,0.37 µM,>27,–,–,–,"Cc1csc(-c2nn(CC(=S)Nc3cccc(C#N)c3)cc2-c2ccc3nccnc3c2)n1 [Compound 19d, N-(3-Cyanophenyl)-2-(3-(4-methylthiazol-2-yl)-4-(quinoxalin-6-yl)-1H-pyrazol-1-yl)ethanethioamide]"
> 10 µM,–,–,–,> 10 µM,–,–,–,no significant ALK5 inhibition activity,"Fc1ccccc1NC(=S)Cn1cc(-c2ccc3nccnc3c2)c(-c2ccncn2)n1 [Compound 27b, N-(2-Fluorophenyl)-2-(3-(pyrimidin-4-yl)-4-(quinoxalin-6-yl)-1H-pyrazol-1-yl)ethanethioamide]"
> 10 µM,–,–,–,2.26 µM,>4,–,–,no significant ALK5 inhibition activity,"N#Cc1cccc(NC(=S)Cn2cc(-c3ccc4nccnc4c3)c(-c3ccncn3)n2)c1 [Compound 27d, N-(3-Cyanophenyl)-2-(3-(pyrimidin-4-yl)-4-(quinoxalin-6-yl)-1H-pyrazol-1-yl)ethanethioamide]"

# Continued, compound first:
SMILES,IC50 [1],remaining activity at 10 µM [1],remaining activity at 10 µM [2],melting point,IC50 [2],Selectivity Index [2],fold more selective than compound 3 (LY-2157299) against p38α MAP kinase [2],inhibition at 10 µM ([2]; at 10 µM),ALK5 inhibitory activity in words [2]
"Cc1cccc(-c2nn3c(c2-c2ccnc4ccc(C(N)=O)cc24)CCC3)n1 [Compound 3, LY-2157299, reference compound]",0.49 µM,4%,1%,–,–,–,–,–,–
"CN(C)c1cccc(-c2nn(CC(=O)Nc3ccccc3)cc2-c2ccc3nccnc3c2)n1 [Compound 14a, 2-(3-(6-(Dimethylamino)pyridin-2-yl)-4-(quinoxalin-6-yl)-1H-pyrazol-1-yl)-N-phenylacetamide]",–,110%,85%,212.5 to 214 °C,–,–,–,–,–
"CN(C)c1cccc(-c2nn(CC(=O)Nc3ccccc3F)cc2-c2ccc3nccnc3c2)n1 [Compound 14b, 2-(3-(6-(Dimethylamino)pyridin-2-yl)-4-(quinoxalin-6-yl)-1H-pyrazol-1-yl)-N-(2-fluorophenyl)acetamide]",–,118%,84%,190.5 to 193 °C,–,–,–,–,–
"CN(C)c1cccc(-c2nn(CC(=O)Nc3cccc(F)c3)cc2-c2ccc3nccnc3c2)n1 [Compound 14c, 2-(3-(6-(Dimethylamino)pyridin-2-yl)-4-(quinoxalin-6-yl)-1H-pyrazol-1-yl)-N-(3-fluorophenyl)acetamide]",–,121%,37%,176.5 to 178.5 °C,–,–,–,–,–
"CN(C)c1cccc(-c2nn(CC(=O)Nc3cccc(C#N)c3)cc2-c2ccc3nccnc3c2)n1 [Compound 14d, N-(3-Cyanophenyl)-2-(3-(6-(dimethylamino)pyridin-2-yl)-4-(quinoxalin-6-yl)-1H-pyrazol-1-yl)acetamide]",–,121%,95%,218.5 to 221.5 °C,–,–,–,–,–
"CN(C)c1cccc(-c2c(-c3ccc4nccnc4c3)cnn2CC(=O)Nc2ccccc2)n1 [Compound 15a, 2-(5-(6-(Dimethylamino)pyridin-2-yl)-4-(quinoxalin-6-yl)-1H-pyrazol-1-yl)-N-phenylacetamide]",–,118%,95%,–,–,–,–,–,–
"CN(C)c1cccc(-c2c(-c3ccc4nccnc4c3)cnn2CC(=O)Nc2ccccc2F)n1 [Compound 15b, 2-(5-(6-(Dimethylamino)pyridin-2-yl)-4-(quinoxalin-6-yl)-1H-pyrazol-1-yl)-N-(2-fluorophenyl)acetamide]",–,117%,87%,130.2 to 133 °C,–,–,–,–,–
"CN(C)c1cccc(-c2c(-c3ccc4nccnc4c3)cnn2CC(=O)Nc2cccc(F)c2)n1 [Compound 15c, 2-(5-(6-(Dimethylamino)pyridin-2-yl)-4-(quinoxalin-6-yl)-1H-pyrazol-1-yl)-N-(3-fluorophenyl)acetamide]",–,109%,88%,146.5 to 147.6 °C,–,–,–,–,–
"CN(C)c1cccc(-c2c(-c3ccc4nccnc4c3)cnn2CC(=O)Nc2cccc(C#N)c2)n1 [Compound 15d, N-(3-Cyanophenyl)-2-(5-(6-(dimethylamino)pyridin-2-yl)-4-(quinoxalin-6-yl)-1H-pyrazol-1-yl)acetamide]",–,109%,94%,145.5 to 148 °C,–,–,–,–,–
"Cc1csc(-c2nn(CC(=O)Nc3ccccc3)cc2-c2ccc3nccnc3c2)n1 [Compound 16a, 2-(3-(4-Methylthiazol-2-yl)-4-(quinoxalin-6-yl)-1H-pyrazol-1-yl)-N-phenylacetamide]",–,98%,5%,190.2 to 192.5 °C,–,–,–,–,–
"Cc1csc(-c2nn(CC(=O)Nc3ccccc3F)cc2-c2ccc3nccnc3c2)n1 [Compound 16b, N-(2-Fluorophenyl)-2-(3-(4-methylthiazol-2-yl)-4-(quinoxalin-6-yl)-1H-pyrazol-1-yl)acetamide]",–,103%,5%,197.5 to 200 °C,–,–,–,–,–
"Cc1csc(-c2nn(CC(=O)Nc3cccc(F)c3)cc2-c2ccc3nccnc3c2)n1 [Compound 16c, N-(3-Fluorophenyl)-2-(3-(4-methylthiazol-2-yl)-4-(quinoxalin-6-yl)-1H-pyrazol-1-yl)acetamide]",–,101%,3%,212.1 to 213.5 °C,–,–,–,–,–
